# Reference: ChEMBL document CHEMBL1132434, “Antitumor benzothiazoles. 8. Synthesis, metabolic formation, and biological properties of the C- and N-oxidation products of antitumor 2-(4-aminophenyl)benzothiazoles” (J Med Chem, 1999)
# What was measured:
# SF-268 = assay: Growth inhibition of the SF-268 CNS cancer cell line for 2-day in vitro assay.; type: functional; conditions: Homo sapiens, SF-268, 48 h
# SW-620 = assay: Growth inhibition of the SW-620 colon cancer cell line for 2-day in vitro assay.; type: functional; conditions: Homo sapiens, SW-620, 48 h
# BT-549 = assay: Growth inhibition of the BT-549 Breast cancer cell line for 2-day in vitro assay.; type: functional; conditions: Homo sapiens, BT-549, 48 h
# OVCAR-3 = assay: Growth inhibition of the OVCAR-3 Ovarian cancer cell line for 2-day in vitro assay.; type: functional; conditions: Homo sapiens, OVCAR-3, 48 h
# HCT-116 = assay: Growth inhibition of the HCT116 colon cancer cell line for 2-day in vitro assay.; type: functional; conditions: Homo sapiens, HCT-116, 48 h
# KM12 = assay: Growth inhibition of the KM12 colon cancer cell line for 2-day in vitro assay.; type: functional; conditions: Homo sapiens, KM12, 48 h
# OVCAR-8 = assay: Growth inhibition of the OVCAR-8 Ovarian cancer cell line for 2-day in vitro assay.; type: functional; conditions: Homo sapiens, OVCAR-8, 48 h
# SR = assay: Growth inhibition of the SR leukemia cell line for 2-day in vitro assay.; type: functional; conditions: Homo sapiens, 48 h
# ACHN = assay: Growth inhibition of the ACHN Renal cancer cell line for 2-day in vitro assay.; type: functional; conditions: Homo sapiens, 48 h
# SNB-19 = assay: Growth inhibition of the SNB19 CNS cancer cell line for 2-day in vitro assay.; type: functional; conditions: Homo sapiens, SNB-19, 48 h
# A498 = assay: Growth inhibition of the A498 Renal cancer cell line for 2-day in vitro assay.; type: functional; conditions: Homo sapiens, A498, 48 h
# SK-OV-3 = assay: Growth inhibition of the SK-OV-3 Ovarian cancer cell line for 2-day in vitro assay.; type: functional; conditions: Homo sapiens, SK-OV-3, 48 h
# MOLT-4 = assay: Growth inhibition of the MOLT-4 leukemia cell line for 2-day in vitro assay.; type: functional; conditions: Homo sapiens, MOLT-4, 48 h
# MDA-MB-435 = assay: Growth inhibition of the […] Breast cancer cell line for 2-day in vitro assay.; type: functional; conditions: Homo sapiens, MDA-MB-435, 48 h
# TK-10 = assay: Growth inhibition of the TK-10 Renal cancer cell line for 2-day in vitro assay.; type: functional; conditions: Homo sapiens, TK-10, 48 h
# UACC-62 = assay: Growth inhibition of the UACC-62 Melanoma cancer cell line for 2-day in vitro assay.; type: functional; conditions: Homo sapiens, UACC-62, 48 h
# MCF7 [1] = assay: In vitro cytotoxicity against MCF-7 human mammary carcinoma cells; type: functional, cell-based
# COLO 205 = assay: Growth inhibition of the COLO-205 colon cancer cell line for 2-day in vitro assay.; type: functional; conditions: Homo sapiens, COLO 205, 48 h
# NCI-H226 = assay: Growth inhibition of the NCI-H226 non-small cell lung cancer cell line for 2-day in vitro assay.; type: functional; conditions: Homo sapiens, NCI-H226, 48 h
# NCI-H460 = assay: Growth inhibition of the NCI-H460 non-small cell lung cancer cell line for 2-day in vitro assay.; type: functional; conditions: Homo sapiens, NCI-H460, 48 h
# MDA-MB-231 = assay: Growth inhibition of the […] Breast cancer cell line for 2-day in vitro assay.; type: functional; conditions: Homo sapiens, MDA-MB-231, 48 h
# U-251 = assay: Growth inhibition of the U251 CNS cancer cell line for 2-day in vitro assay.; type: functional; conditions: Homo sapiens, U-251, 48 h
# EKVX = assay: Growth inhibition of the EKVX non-small cell lung cancer cell line for 2-day in vitro assay.; type: functional; conditions: Homo sapiens, 48 h
# DU-145 = assay: Growth inhibition of the DU-145 Prostate cancer cell line for 2-day in vitro assay.; type: functional; conditions: Homo sapiens, DU-145, 48 h
# OVCAR-5 = assay: Growth inhibition of the OVCAR-5 Ovarian cancer cell line for 2-day in vitro assay.; type: functional; conditions: Homo sapiens, OVCAR-5, 48 h
# PC-3 = assay: Growth inhibition of the PC-3 Prostate cancer cell line for 2-day in vitro assay.; type: functional; conditions: Homo sapiens, PC-3, 48 h
# SK-MEL-5 = assay: Growth inhibition of the SK-MEL-5 Melanoma cancer cell line for 2-day in vitro assay.; type: functional; conditions: Homo sapiens, SK-MEL-5, 48 h
# HCT-15 = assay: Growth inhibition of the HCT-15 colon cancer cell line for 2-day in vitro assay.; type: functional; conditions: Homo sapiens, HCT-15, 48 h
# SK-MEL-28 = assay: Growth inhibition of the SK-MEL-28 Melanoma cancer cell line for 2-day in vitro assay.; type: functional; conditions: Homo sapiens, SK-MEL-28, 48 h
# Malme-3M = assay: Growth inhibition of the MALME-3M Melanoma cancer cell line for 2-day in vitro assay.; type: functional; conditions: Homo sapiens, 48 h
# SN12C = assay: Growth inhibition of the SN12C Renal cancer cell line for 2-day in vitro assay.; type: functional; conditions: Homo sapiens, 48 h
# SNB-75 = assay: Growth inhibition of the SNB-75 CNS cancer cell line for 2-day in vitro assay.; type: functional; conditions: Homo sapiens, SNB-75, 48 h
# Hs-578T = assay: Growth inhibition of the Hs 578.T Breast cancer cell line for 2-day in vitro assay.; type: functional; conditions: Homo sapiens, 48 h
# UO-31 = assay: Growth inhibition of the UO-31 Renal cancer cell line for 2-day in vitro assay.; type: functional; conditions: Homo sapiens, UO-31, 48 h
# HOP-92 = assay: Growth inhibition of the HOP-92 non-small cell lung cancer cell line for 2-day in vitro assay.; type: functional; conditions: Homo sapiens, HOP-92, 48 h
# CCRF-CEM = assay: Growth inhibition of the CCRF-CEM leukemia cell line for 2-day in vitro assay.; type: functional; conditions: Homo sapiens, 48 h
# SK-MEL-2 = assay: Growth inhibition of the SK-MEL-2 Melanoma cancer cell line for 2-day in vitro assay.; type: functional; conditions: Homo sapiens, SK-MEL-2, 48 h
# SF-295 = assay: Growth inhibition of the SF-295 CNS cancer cell line for 2-day in vitro assay.; type: functional; conditions: Homo sapiens, SF-295, 48 h
# HCC 2998 = assay: Growth inhibition of the HCC2998 colon cancer cell line for 2-day in vitro assay.; type: functional; conditions: Homo sapiens, HCC 2998, 48 h
# NCI-H522 = assay: Growth inhibition of the NCI-H522 non-small cell lung cancer cell line for 2-day in vitro assay.; type: functional; conditions: Homo sapiens, NCI-H522, 48 h
# OVCAR-4 = assay: Growth inhibition of the OVCAR-4 Ovarian cancer cell line for 2-day in vitro assay.; type: functional; conditions: Homo sapiens, OVCAR-4, 48 h
# 786-0 = assay: Growth inhibition of the 786-O Renal cancer cell line for 2-day in vitro assay.; type: functional; conditions: Homo sapiens, 786-0, 48 h
# HT-29 = assay: Growth inhibition of the HT-29 colon cancer cell line for 2-day in vitro assay.; type: functional; conditions: Homo sapiens, HT-29, 48 h
# NCI/ADR-RES = assay: Growth inhibition of the NCI/ADR-RES Breast cancer cell line for 2-day in vitro assay.; type: functional; conditions: Homo sapiens, 48 h
# UACC-257 = assay: Growth inhibition of the UACC-257 Melanoma cancer cell line for 2-day in vitro assay.; type: functional; conditions: Homo sapiens, UACC-257, 48 h
# LOX IMVI = assay: Growth inhibition of the LOX IMVI Melanoma cancer cell line for 2-day in vitro assay.; type: functional; conditions: Homo sapiens, 48 h
# K562 = assay: Growth inhibition of the K-562 leukemia cell line for 2-day in vitro assay.; type: functional; conditions: Homo sapiens, K562, 48 h
# RXF 393 = assay: Growth inhibition of the RXF-393 Renal cancer cell line for 2-day in vitro assay.; type: functional; conditions: Homo sapiens, RXF 393, 48 h
# A549 = assay: Growth inhibition of the A549/ATCC non-small cell lung cancer cell line for 2-day in vitro assay.; type: functional; conditions: Homo sapiens, A549, 48 h
# HOP-62 = assay: Growth inhibition of the HOP-62 non-small cell lung cancer cell line for 2-day in vitro assay.; type: functional; conditions: Homo sapiens, HOP-62, 48 h
# T47D = assay: Growth inhibition of the T-47D Breast cancer cell line for 2-day in vitro assay.; type: functional; conditions: Homo sapiens, 48 h
# M14 = assay: Growth inhibition of the M14 Melanoma cancer cell line for 2-day in vitro assay.; type: functional; conditions: Homo sapiens, M14, 48 h
# NCI-H23 = assay: Growth inhibition of the NCI-H23 non-small cell lung cancer cell line for 2-day in vitro assay.; type: functional; conditions: Homo sapiens, NCI-H23, 48 h
# NCI-H322M = assay: Growth inhibition of the NCI-H322M non-small cell lung cancer cell line for 2-day in vitro assay.; type: functional; conditions: Homo sapiens, 48 h
# MCF7 [2] = assay: Growth inhibition of the MCF-7 Breast cancer cell line for 2-day in vitro assay.; type: functional; conditions: Homo sapiens, MCF7, 48 h
structure (smiles),measurement,setting,value
Cc1cc(-c2nc3ccc(O)cc3s2)ccc1N,GI50,SF-268,35.5 µM
same,GI50,SW-620,66.1 µM
same,GI50,BT-549,14.1 µM
same,GI50,OVCAR-3,38.9 µM
same,GI50,HCT-116,43.7 µM
same,GI50,KM12,57.5 µM
same,GI50,OVCAR-8,> 100 µM
same,GI50,SR,21.9 µM
same,GI50,ACHN,53.7 µM
same,GI50,SNB-19,45.7 µM
same,GI50,A498,41.7 µM
same,GI50,SK-OV-3,37.2 µM
same,GI50,MOLT-4,26.9 µM
same,GI50,MDA-MB-435,89.1 µM
same,GI50,TK-10,77.6 µM
same,GI50,UACC-62,57.5 µM
same,IC50,MCF7 [1],< 0.001 µM
same,GI50,COLO 205,> 100 µM
same,GI50,NCI-H226,60.3 µM
same,GI50,NCI-H460,38.9 µM
same,GI50,MDA-MB-231,44.7 µM
same,GI50,U-251,31.6 µM
same,GI50,EKVX,4.07 µM
same,GI50,DU-145,33.9 µM
same,GI50,OVCAR-5,83.2 µM
same,GI50,PC-3,50.1 µM
same,GI50,SK-MEL-5,52.5 µM
same,GI50,HCT-15,> 100 µM
same,GI50,SK-MEL-28,64.6 µM
same,GI50,Malme-3M,83.2 µM
same,GI50,SN12C,38.9 µM
same,GI50,SNB-75,15.8 µM
same,GI50,Hs-578T,95.5 µM
same,GI50,UO-31,21.4 µM
same,GI50,HOP-92,> 100 µM
same,GI50,CCRF-CEM,0.794 µM
same,GI50,SK-MEL-2,> 100 µM
same,GI50,SF-295,31.6 µM
same,GI50,HCC 2998,> 100 µM
same,GI50,NCI-H522,30.2 µM
same,GI50,OVCAR-4,37.2 µM
same,GI50,786-0,29.5 µM
same,GI50,HT-29,37.2 µM
same,GI50,NCI/ADR-RES,91.2 µM
same,GI50,UACC-257,> 100 µM
same,GI50,LOX IMVI,> 100 µM
same,GI50,K562,36.3 µM
same,GI50,RXF 393,30.2 µM
same,GI50,A549,34.7 µM
same,GI50,HOP-62,30.9 µM
same,GI50,T47D,22.4 µM
same,GI50,M14,33.1 µM
same,GI50,NCI-H23,12.6 µM
same,GI50,NCI-H322M,39.8 µM
same,GI50,MCF7 [2],56.2 µM
